Reference: PubChem BioAssay AID330 (DTP/NCI, 2004)
“And” between values parts separate entries of the source, which are not always exact repeats. Identical values can stand only once. Toxic doses and inconclusive results are not listed. How the source made its calls: active means survival T/C of 150% or more; inactive means T/C below 125% in these data.

Test system: P388 leukemia ip, CD2F1 mice, survival T/C
Experiment: NCI In Vivo Anticancer Drug Screen. Data for tumor model P388 Leukemia (intraperitoneal) in CD2F1 (CDF1) mice
Conditions: endpoint: median survival time, higher = longer survival
Description: The antitumor activity of compounds was measured in mice bearing transplantable tumors. Survival or tumor size were measured and the results are expressed as the measurement made in the treated group (T) divided by the measurement made in the vehicle treated control group (C). The tumor model used in this assay is P388 Leukemia (intraperitoneal) in CD2F1 (CDF1) mice

[1] = dose: 25.0 mg/kg/injection, schedule: Q01DX009 (ip), vehicle: saline with Tween-80
[2] = dose: 50.0 mg/kg/injection, schedule: Q01DX009 (ip), vehicle: saline with Tween-80
[3] = dose: 50.0 mg/kg/injection, schedule: Q01DX005 (ip), vehicle: saline with Tween-80
[4] = dose: 100.0 mg/kg/injection, schedule: Q01DX005 (ip), vehicle: saline with Tween-80
[5] = dose: 200.0 mg/kg/injection, schedule: Q01DX005 (ip), vehicle: saline with Tween-80
[6] = dose: 100.0 mg/kg/injection, schedule: Q04DX003 (ip), vehicle: Klucel (hydroxypropylcellulose) (HPC)
[7] = dose: 200.0 mg/kg/injection, schedule: Q04DX003 (ip), vehicle: Klucel (hydroxypropylcellulose) (HPC)
[8] = dose: 400.0 mg/kg/injection, schedule: Q04DX003 (ip), vehicle: Klucel (hydroxypropylcellulose) (HPC)
[9] = dose: 50.0 mg/kg/injection, schedule: Q01DX005 (ip), vehicle: Klucel (hydroxypropylcellulose) (HPC)
[10] = dose: 100.0 mg/kg/injection, schedule: Q01DX005 (ip), vehicle: Klucel (hydroxypropylcellulose) (HPC)
[11] = dose: 100.0 mg/kg/injection, schedule: Q04DX002 (ip), vehicle: saline with Tween-80
[12] = dose: 200.0 mg/kg/injection, schedule: Q04DX002 (ip), vehicle: saline with Tween-80
[13] = dose: 400.0 mg/kg/injection, schedule: Q04DX002 (ip), vehicle: saline with Tween-80
[14] = dose: 25.0 mg/kg/injection, schedule: Q01DX009 (ip), vehicle: Klucel (hydroxypropylcellulose) (HPC)
[15] = dose: 50.0 mg/kg/injection, schedule: Q01DX009 (ip), vehicle: Klucel (hydroxypropylcellulose) (HPC)
[16] = dose: 100.0 mg/kg/injection, schedule: Q01DX009 (ip), vehicle: Klucel (hydroxypropylcellulose) (HPC)
[17] = dose: 200.0 mg/kg/injection, schedule: Q01DX005 (ip), vehicle: Klucel (hydroxypropylcellulose) (HPC)
[18] = dose: 200.0 mg/kg/injection, schedule: Q01DX009 (ip), vehicle: Klucel (hydroxypropylcellulose) (HPC)
[19] = dose: 100.0 mg/kg/injection, schedule: Q01DX009 (ip), vehicle: saline with Tween-80
[20] = dose: 200.0 mg/kg/injection, schedule: Q01DX009 (ip), vehicle: saline with Tween-80

Measured: T/C

CCc1c(C(=O)OC)c(C(=O)OC)c(-c2ccc(C)cc2)n1CCn1c(CC)c(C(=O)OC)c(C(=O)OC)c1-c1ccc(C)cc1
inactive: dose: 60.0 mg/kg/injection, schedule: Q01DX005 (ip), vehicle: Klucel (hydroxypropylcellulose) (HPC) 96 % of control | dose: 120.0 mg/kg/injection, schedule: Q01DX005 (ip), vehicle: Klucel (hydroxypropylcellulose) (HPC) 101 % of control | dose: 240.0 mg/kg/injection, schedule: Q01DX005 (ip), vehicle: Klucel (hydroxypropylcellulose) (HPC) 92 % of control

CCN(CC)Cc1cc(C)c(O)c(N=Nc2cc(OC)c(N=Nc3ccc([N+](=O)[O-])cc3)cc2OC)c1C
inactive: dose: 100.0 mg/kg/injection, schedule: Q04DX003 (ip), vehicle: saline with Tween-80 91 % of control | dose: 200.0 mg/kg/injection, schedule: Q04DX003 (ip), vehicle: saline with Tween-80 94 % of control | dose: 400.0 mg/kg/injection, schedule: Q04DX003 (ip), vehicle: saline with Tween-80 94 % of control

CC(=O)OCC1OC(n2cnc3c(=S)nc(N)[nH]c32)C(OC(C)=O)C1OC(C)=O (stereo unspecified)
inactive: dose: 12.5 mg/kg/injection, schedule: Q04DX003 (ip), vehicle: saline with Tween-80 118 % of control | [1] 122 % of control | [2] 113 % of control | dose: 300.0 mg/kg/injection, schedule: Q04DX003 (ip), vehicle: saline with Tween-80 100 % of control

O=S(=O)(O)C1CC2C(c3ccccc31)N1ON2O1 (stereo unspecified)
inactive: [3] 102 % of control | [4] 100 % of control | [5] 100 % of control

CCOC1(C)OC2OC(COCc3ccccc3)C(OCc3ccccc3)C(OCc3ccccc3)C2O1 (stereo unspecified)
inactive: dose: 12.5 mg/kg/injection, schedule: Q01DX009 (ip), vehicle: other 99 % of control | dose: 25.0 mg/kg/injection, schedule: Q01DX009 (ip), vehicle: other 100 % of control | dose: 50.0 mg/kg/injection, schedule: Q01DX009 (ip), vehicle: other 100 % of control | dose: 100.0 mg/kg/injection, schedule: Q01DX009 (ip), vehicle: other 89 % of control | dose: 200.0 mg/kg/injection, schedule: Q01DX009 (ip), vehicle: other 98 % of control

COc1ccc(N=Nc2c(C)nn(C(N)=S)c2C)cc1
inactive: dose: 100.0 mg/kg/injection, schedule: Q04DX002 (ip), vehicle: Klucel (hydroxypropylcellulose) (HPC) 93 % of control | dose: 200.0 mg/kg/injection, schedule: Q04DX002 (ip), vehicle: Klucel (hydroxypropylcellulose) (HPC) 92 % of control | dose: 400.0 mg/kg/injection, schedule: Q04DX002 (ip), vehicle: Klucel (hydroxypropylcellulose) (HPC) 94 % of control

Clc1ccc(CN2COc3c(cc(Cl)c4cccnc34)C2)c(Cl)c1
inactive: [6] 102 % of control | [7] 87 % of control | [8] 87 % of control

CCCCn1cnc(C(=O)OC)c1O (tested in a mixture with another compound)
inactive: dose: 100.0 mg/kg/injection, schedule: Q04DX002 (ip), vehicle: water 103 % of control | dose: 200.0 mg/kg/injection, schedule: Q04DX002 (ip), vehicle: water 101 % of control | dose: 400.0 mg/kg/injection, schedule: Q04DX002 (ip), vehicle: water 108 % of control

CC(SCCCCCCCCCCCCSC(C)C(=O)O)C(=O)O (stereo unspecified)
inactive: [3] 106 % of control | [4] 97 % of control | [5] 100 % of control

C[C@@H](N)C(=O)NC(CO)CC(N)C=O (stereo partly specified)
inactive: dose: 50.0 mg/kg/injection, schedule: Q04DX002 (ip), vehicle: saline 105 % of control and 115 % of control | dose: 100.0 mg/kg/injection, schedule: Q04DX002 (ip), vehicle: saline 111 % of control and 120 % of control | dose: 200.0 mg/kg/injection, schedule: Q04DX002 (ip), vehicle: saline 109 % of control and 121 % of control | dose: 400.0 mg/kg/injection, schedule: Q04DX002 (ip), vehicle: saline 122 % of control

O=c1c2nccnc2nc2n1CCS2
inactive: [6] 100 % of control | [7] 101 % of control | [8] 107 % of control

O=C1NC(=O)N(C(F)(F)F)C(F)(F)N1C(F)(F)F
inactive: [9] 107 % of control | [10] 107 % of control

CC(C)C(=O)NCc1ccccc1Sc1ccccc1CNC(=O)C(C)C
inactive: [11] 90 % of control | [12] 90 % of control | [13] 91 % of control

CCCCCCCCCCCCCCCCS[As](C)C
inactive: [3] 92 % of control | [4] 100 % of control | [5] 96 % of control

Cc1ccc(C2(COC(=O)c3ccccc3)CO2)c(OC(=O)C(C)C)c1 (stereo unspecified)
inactive: dose: 12.5 mg/kg/injection, schedule: Q01DX009 (ip), vehicle: Klucel (hydroxypropylcellulose) (HPC) 99 % of control | [14] 95 % of control | [15] 107 % of control | [16] 105 % of control

COCCN(CCOC)C(C(=O)Cc1ccccc1)c1ccccc1 (stereo unspecified)
inactive: [3] 99 % of control | [4] 101 % of control | [5] 103 % of control

CC(C)(CNCc1ccccc1)COS(=O)(=O)O
inactive: dose: 100.0 mg/kg/injection, schedule: Q01DX001 (ip), vehicle: saline 110 % of control | dose: 200.0 mg/kg/injection, schedule: Q01DX001 (ip), vehicle: saline 105 % of control | dose: 400.0 mg/kg/injection, schedule: Q01DX001 (ip), vehicle: saline 100 % of control

COC(=O)CC1C=CCC2C(=O)C=C(OC)C(=O)C12C (stereo unspecified)
inactive: [9] 103 % of control | [10] 100 % of control | [17] 100 % of control

Cc1cc(C(=O)Nc2ccc(NC3=NCCN3)cc2)cc(C(=O)Nc2ccc(NC3=NCCN3)cc2)c1
inactive: dose: 3.12 mg/kg/injection, schedule: Q01DX005 (ip), vehicle: saline with Tween-80 100 % of control | dose: 6.25 mg/kg/injection, schedule: Q01DX005 (ip), vehicle: saline with Tween-80 107 % of control | dose: 12.5 mg/kg/injection, schedule: Q01DX005 (ip), vehicle: saline with Tween-80 106 % of control

Brc1c(C(Br)Br)ccc2ccccc12
inactive: [9] 103 % of control | [10] 105 % of control | [17] 109 % of control

CCOc1ccc(/C=C(\C(=O)c2ccccc2)S(=O)(=O)c2ccc(OC)cc2)cc1OC
inactive: [3] 92 % of control | [4] 92 % of control

COc1cc2c(cc1O)N=C[C@@H]1CCC(O)N1C2=O (mixture of isomers)
inactive: dose: 1.0 mg/kg/injection, schedule: Q01DX009 (ip), vehicle: saline 96 % of control | dose: 2.0 mg/kg/injection, schedule: Q01DX009 (ip), vehicle: saline 104 % of control

COc1cc2c(cc1OC)C(=O)CCC2
inactive: [14] 105 % of control | [15] 100 % of control | [16] 106 % of control | [18] 99 % of control

CN(C)C(=S)SC1OC(CO)C(OC2OC(CO)C(O)C(O)C2O)C(O)C1O (stereo unspecified)
inactive: [2] 93 % of control | [19] 90 % of control | [20] 88 % of control

O=N[O-].O=[N+]([O-])O.[Co+3].[NH2-].[NH2-].[NH2-].[NH2-].[NH2-]
inactive: dose: 12.5 mg/kg/injection, schedule: Q01DX001 (ip), vehicle: saline 97 % of control | dose: 25.0 mg/kg/injection, schedule: Q01DX001 (ip), vehicle: saline 110 % of control

COC(=O)c1ccccc1-c1ccccc1C=O
inactive: [11] 97 % of control | [12] 98 % of control | [13] 100 % of control

Sc1cc2c(c3ccccc13)Nc1ccccc1S2
inactive: [15] 92 % of control | [16] 97 % of control | [18] 97 % of control

O=[N+]([O-])c1ccc2nc3c4ccccc4c4ccccc4c3nc2c1
inactive: dose: 12.5 mg/kg/injection, schedule: Q01DX009 (ip), vehicle: saline with Tween-80 105 % of control | [1] 116 % of control | [2] 109 % of control and 117 % of control | [19] 105 % of control | [20] 104 % of control

O=C1CN(N2CCOCC2)CC(=O)N2CCCCN12
inactive: dose: 50.0 mg/kg/injection, schedule: Q01DX005 (ip), vehicle: saline 100 % of control | dose: 100.0 mg/kg/injection, schedule: Q01DX005 (ip), vehicle: saline 109 % of control | dose: 200.0 mg/kg/injection, schedule: Q01DX005 (ip), vehicle: saline 109 % of control
